Experimental data published in patent US20170247335A1, “FLUORINATED PYRIDAZIN-3-ONES FOR THE USE THEREOF IN THE TREATMENT OF LUNG DISEASES” (UNIVERSITE DE REIMS CHAMPAGNE-ARDENNE, priority 2014, published 2017).

Columns and labels:
Format in all cases: biochemical
[1] = tested on: PDE4 (recombinant human phosphodiesterases PDE4B2 and PDE4D); test: PDE4 enzyme inhibition, colorimetric cAMP cleavage test (5'-nucleotidase, Biomol Green); settings: for IC50: average of three independent determinations, non-linear regression, 60 min incubation, 2% DMSO, read-out: CI50 (inhibitory concentration 50)
Protocol: The activity of the PDE1 and PDE10 enzymes was also monitored.
(§1) The principle of the test is based on the cleavage of AMPc by the enzymes phosphodiesterases. The nucleotide-5′ which is sorted out during the reaction is itself cleaved by an enzyme 5′-nucleotidase into a nucleoside and a phosphate, the latter being quantified by using the reagent Biomol Green™.
(§2) The reaction is stopped by adding an amount of 100 microliters of the reagent Biomol Green™ and the plate is incubated for further 30 mins in order to allow development of the colour before reading the absorbance by means of a micro-plate reader.
The CI50s which were calculated represent the average value of three determinations which were achieved independently of each other.
A non-specific inhibitor of the PDE enzymes, 3-isobutyl-1-methylxanthin (IBMX) corresponds to the control.

PDE1 = PDE1 enzyme inhibition, same colorimetric test; settings: at a concentration of 50 μM of compound
Protocol: (§3) In order to evaluate the action of the compounds (Ic), (Ig) and (Ii) according to the invention, the activity of different sub-types of phosphodiesterases, either of type 4 or not, was tested in vitro by using a kit adapted to the recombinant isoforms of human phosphodiesterases PDE4B2 and PDE4D coded by Escherichia coli. The activity of the PDE1 and PDE10 enzymes was also monitored.
as §1
(§4) The PDE enzymes are incubated on microplates in the presence of AMPc, 5′-nucleotidase, in the presence of an inhibitor, more particularly corresponding to the compound (Ic), (Ig) or (Ii) according to the invention, or in the absence of any inhibitor (control), and this for a period of the order of 60 mins.
as §2
The study of the inhibition of the PDE enzymes by the compound (Ic), (Ig) or (Ii) according to the invention was carried out by testing […] different concentrations (500 μM, 50 μM, 5 μM and 0.5 μM) of said compounds (Ic), (Ig) or (Ii).

PDE10 = PDE10 (Homo sapiens, UniProt Q9Y233); test: PDE10 enzyme inhibition, same colorimetric test; settings: read-out: percentage of inhibition towards PDE10
Sequence of PDE10 (Q9Y233 whole entry): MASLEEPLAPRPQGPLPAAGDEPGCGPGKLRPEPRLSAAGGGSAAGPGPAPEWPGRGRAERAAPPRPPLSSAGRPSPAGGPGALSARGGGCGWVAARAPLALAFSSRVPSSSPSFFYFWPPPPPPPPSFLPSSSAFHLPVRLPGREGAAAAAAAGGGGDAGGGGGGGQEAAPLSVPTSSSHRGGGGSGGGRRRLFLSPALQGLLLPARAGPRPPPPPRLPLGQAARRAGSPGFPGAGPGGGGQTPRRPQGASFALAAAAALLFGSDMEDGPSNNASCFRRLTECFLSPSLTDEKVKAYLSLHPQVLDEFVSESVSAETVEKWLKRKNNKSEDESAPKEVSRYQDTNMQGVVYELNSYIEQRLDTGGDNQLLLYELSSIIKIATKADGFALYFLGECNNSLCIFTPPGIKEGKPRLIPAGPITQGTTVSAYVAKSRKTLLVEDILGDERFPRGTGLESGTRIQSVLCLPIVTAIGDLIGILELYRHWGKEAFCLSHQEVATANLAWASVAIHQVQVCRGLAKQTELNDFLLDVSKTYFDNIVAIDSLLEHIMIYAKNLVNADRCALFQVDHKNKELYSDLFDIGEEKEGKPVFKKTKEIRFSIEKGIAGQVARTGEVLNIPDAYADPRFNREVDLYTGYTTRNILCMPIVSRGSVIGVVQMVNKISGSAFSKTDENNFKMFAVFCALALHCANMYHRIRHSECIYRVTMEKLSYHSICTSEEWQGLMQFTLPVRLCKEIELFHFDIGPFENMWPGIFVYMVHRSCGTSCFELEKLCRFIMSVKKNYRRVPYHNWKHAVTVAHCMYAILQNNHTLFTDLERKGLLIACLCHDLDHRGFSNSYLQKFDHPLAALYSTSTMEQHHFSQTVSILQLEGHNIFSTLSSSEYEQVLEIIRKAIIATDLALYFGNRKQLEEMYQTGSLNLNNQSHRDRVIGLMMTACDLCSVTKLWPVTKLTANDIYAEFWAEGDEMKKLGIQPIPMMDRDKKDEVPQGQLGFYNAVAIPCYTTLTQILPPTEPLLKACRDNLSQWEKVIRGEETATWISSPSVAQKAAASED
Protocol: as §3, §1, §4
The reaction is stopped by adding an amount of 100 microliters of the reagent Biomol Green™ and the plate is incubated for further 30 mins in order to allow development of the colour before reading the absorbance by means of a micro-plate reader. […]

[2] = at a concentration of 50 μM of compound

inhibition percentage of PDE4 [1, 2] [%] | IC50 [1] [µM] | inhibition of PDE1 (PDE1) [%] | inhibition at 50 µM (PDE10) [%] | inhibition percentage of PDE4 ([1]; at a 5 μM concentration of compound) [%] | SMILES
74 | 8.1 | 0 |  |  | COc1ccc(-c2cc(C(F)(F)F)c(=O)[nH]n2)cc1OC [compound (Ic), 4-(trifluoromethyl)-6-(3′,4′-dimethoxyphenyl)pyridazin-3(2H)-one]
45 | 15 | 0 |  |  | Cc1ccc(-c2cc(C(F)(F)F)c(=O)n(-c3ccccc3)n2)cc1 [compound (Ig), 4-(trifluoromethyl)-2-phenyl-6-(p-tolyl)pyridazin-3(2H)-one]
 | 0.25 | 0 | 9 | 56 | COc1cc(-c2cc(C(F)(F)F)c(=O)[nH]n2)ccc1OC(F)F [compound (Ii), 6-(4′-(difluoromethoxy)-3′-methoxy-phenyl)-4-(trifluoromethyl)pyridazin-3(2H)-one]
